Laboratory results from BindingDB's records for patent US10738053 (Hoffmann-La Roche, 2020).
pIC50: −log10 of the molar value.

Target: Autotaxin (Homo sapiens, UniProt Q13822)
Assay: Enzyme Inhibition Assay
Method: Then, 15 μL of 41.7 nM ATX solution was added (30 nM final concentration), mixed five times and then incubated for 15 minutes at 30° C. 10 μL of MR121 substrate solution was added (1 μM final concentration), mixed 30 times and then incubated for 15 minutes at 30° C.

pIC50: 8.15
SMILES: NS(=O)(=O)c1ccc(C(=O)N2C[C@H]3CN(C(=O)COc4ccc(OC(F)(F)F)cc4)C[C@]3(F)C2)c(F)c1 (relative stereo) [US10738053, Example 3.01]
